Results: US8063065B2, “Azaindazole compounds as CCR1 receptor antagonists” (Boehringer Ingelheim International GmbH, priority 2008, dated 2011)

Molecular target: T1, CCR1 (Homo sapiens, UniProt P32246)
T1 sequence (P32246 1-355): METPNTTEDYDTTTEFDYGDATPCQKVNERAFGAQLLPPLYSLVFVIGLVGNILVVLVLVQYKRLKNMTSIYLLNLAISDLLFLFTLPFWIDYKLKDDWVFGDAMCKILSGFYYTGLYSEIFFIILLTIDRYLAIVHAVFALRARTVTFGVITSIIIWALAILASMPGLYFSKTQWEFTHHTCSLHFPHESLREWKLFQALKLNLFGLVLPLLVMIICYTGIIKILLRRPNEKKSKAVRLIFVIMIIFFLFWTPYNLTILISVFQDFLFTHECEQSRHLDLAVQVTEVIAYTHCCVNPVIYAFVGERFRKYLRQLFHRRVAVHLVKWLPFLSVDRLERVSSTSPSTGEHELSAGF
Test: Method B: calcium flux in CCR1 transfected cells (Calcium 4 dye, […] FDSS6000), block of the CCR1/MIP-1α interaction
Assay type: cell-based
Settings: Method B: Calcium 4 dye, MIP-1alpha at EC80
Procedure, shortened: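 Non-adherent cells stably expressing CCR1 and G-alpha-16 were loaded with Calcium 4 dye plus probenecid for 1 h at room temperature. Compounds (top 3,000 nM, 4-fold, 10 doses, 1% DMSO) in HBSS/20 mM HEPES pH 7.4 were incubated 30 min at 37 C, then 30 min at room temperature. MIP-1α at EC80 was added and calcium flux read on FDSS6000.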

Structure (SMILES) | IC50
Cc1cc(CNC(=O)c2cncc3c2cnn3-c2ccc(F)cc2)cc(S(C)(=O)=O)n1 [1-(4-Fluorophenyl)-1H-pyrazolo[3,4-c]pyridine-4-carboxylic acid (2-methanesulfonyl-6-methyl-pyridin-4-ylmethyl)-amide] | 5 nM
C[C@H](NC(=O)c1cncc2c1cnn2-c1ccc(F)cc1)c1cnc(S(C)(=O)=O)s1 [1-(4-Fluorophenyl)-1H-pyrazolo[3,4-c]pyridine-4-carboxylic acid [(S)-1-(2-methanesulfonyl-thiazol-5-yl)-ethyl]-amide] | 6 nM
C[C@H](NC(=O)c1cncc2c1cnn2-c1ccc(F)cc1)c1cc(S(C)(=O)=O)[nH]c(=O)c1 [1-(4-Fluorophenyl)-1H-pyrazolo[3,4-c]pyridine-4-carboxylic acid [(S)-1-(6-methanesulfonyl-2-oxo-1,2-dihydropyridin-4-yl)-ethyl]-amide] | 3 nM
CCS(=O)(=O)c1cccc([C@H](C)NC(=O)c2cncc3c2cnn3-c2ccc(F)cc2)n1 [1-(4-Fluorophenyl)-1H-pyrazolo[3,4-c]pyridine-4-carboxylic acid [(S)-1-(6-ethanesulfonyl-pyridin-2-yl)-ethyl]-amide] | 14 nM
CC[C@H](NC(=O)c1cncc2c1cnn2-c1ccc(F)cc1)c1nc(Br)cs1 [1-(4-Fluorophenyl)-1H-pyrazolo[3,4-c]pyridine-4-carboxylic acid [(S)-1-(4-bromo-thiazol-2-yl)-propyl]-amide] | 0.8 nM
CC[C@H](NC(=O)c1cncc2c1cnn2-c1ccc(F)cc1)c1nc(C(=O)NC)cs1 [1-(4-Fluorophenyl)-1H-pyrazolo[3,4-c]pyridine-4-carboxylic acid [(S)-1-(4-methylcarbamoyl-thiazol-2-yl)-propyl]-amide] | 3 nM
C[C@H](NC(=O)c1cncc2c1cnn2-c1ccc(F)cc1)c1cc(NCC(N)=O)nc(S(C)(=O)=O)c1 [1-(4-Fluorophenyl)-1H-pyrazolo[3,4-c]pyridine-4-carboxylic acid {(S)-1-[2-(carbamoylmethyl-amino)-6-methanesulfonyl-pyridin-4-yl]-ethyl}-amide] | 0.6 nM
C[C@H](NC(=O)c1cncc2c1cnn2-c1ccc(F)cc1)c1ccnc(S(N)(=O)=O)c1 [1-(4-Fluorophenyl)-1H-pyrazolo[3,4-c]pyridine-4-carboxylic acid [(S)-1-(2-sulfamoyl-pyridin-4-yl)-ethyl]-amide] | 3 nM
CCC(NC(=O)c1cncc2c1cnn2-c1ccc(F)cc1)C1CCN(C(=O)OC(C)(C)C)CC1 (centres unmarked) [4-(1-{[1-(4-Fluorophenyl)-1H-pyrazolo[3,4-c]pyridine-4-carbonyl]-amino}-propyl)-piperidine-1-carboxylic acid tert-butyl ester] | 4 nM
CCC(NC(=O)c1cncc2c1cnn2-c1ccc(F)cc1)c1nc(C(=O)NCC(N)=O)c(C)o1 (centres unmarked) [1-(4-Fluorophenyl)-1H-pyrazolo[3,4-c]pyridine-4-carboxylic acid {1-[4-(carbamoylmethyl-carbamoyl)-5-methyl-oxazol-2-yl]-propyl}-amide] | 25 nM
CS(=O)(=O)c1nc(CNC(=O)c2cncc3c2cnn3-c2ccc(F)cc2)cs1 [1-(4-Fluorophenyl)-1H-pyrazolo[3,4-c]pyridine-4-carboxylic acid (2-methanesulfonyl-thiazol-4-ylmethyl)-amide] | 29 nM
CC(C)(O)CNc1cc(CNC(=O)c2cncc3c2cnn3-c2ccc(F)cc2)cc(S(C)(=O)=O)n1 [1-(4-Fluorophenyl)-1H-pyrazolo[3,4-c]pyridine-4-carboxylic acid [2-(2-hydroxy-2-methyl-propylamino)-6-methanesulfonyl-pyridin-4-ylmethyl]-amide] | 0.7 nM
CC[C@H](NC(=O)c1cncc2c1cnn2-c1ccc(F)cc1)c1cc(NC(C)C)nc(S(C)(=O)=O)c1 [1-(4-Fluorophenyl)-1H-pyrazolo[3,4-c]pyridine-4-carboxylic acid [(S)-1-(2-isopropylamino-6-methanesulfonyl-pyridin-4-yl)-propyl]-amide] | 0.2 nM

Other lines, results leading:

IC50 | Structure (SMILES)
28 nM | CC[C@H](NC(=O)c1cncc2c1cnn2-c1ccc(F)cc1)c1cc(Br)no1 [1-(4-Fluorophenyl)-1H-pyrazolo[3,4-c]pyridine-4-carboxylic acid [(S)-1-(3-bromo-isoxazol-5-yl)-propyl]-amide]
0.1 nM | CCC[C@H](NC(=O)c1cncc2c1cnn2-c1ccc(F)cc1)c1ccnc(S(=O)(=O)CC)c1 [1-(4-Fluorophenyl)-1H-pyrazolo[3,4-c]pyridine-4-carboxylic acid [(S)-1-(2-ethanesulfonyl-pyridin-4-yl)-butyl]-amide]
0.5 nM | CC[C@H](NC(=O)c1cncc2c1cnn2-c1ccc(F)cc1)c1ccnc([S+](C)[O-])c1 (stereo partly drawn) [1-(4-Fluorophenyl)-1H-pyrazolo[3,4-c]pyridine-4-carboxylic acid [(S)-1-(2-methanesulfinyl-pyridin-4-yl)-propyl]-amide]
3 nM | CC[C@H](NC(=O)c1cncc2c1cnn2-c1ccc(F)cc1)c1ccnc(-c2nnn[nH]2)c1 [1-(4-Fluorophenyl)-1H-pyrazolo[3,4-c]pyridine-4-carboxylic acid {(S)-1-[2-(1H-tetrazol-5-yl)-pyridin-4-yl]-propyl}-amide]
7 nM | CC[C@H](NC(=O)c1cncc2c1cnn2-c1ccc(F)cc1)c1ccc(OC)c(Br)c1 [1-(4-Fluorophenyl)-1H-pyrazolo[3,4-c]pyridine-4-carboxylic acid [(S)-1-(3-bromo-4-methoxy-phenyl)-propyl]-amide]
0.2 nM | CC[C@H](NC(=O)c1cncc2c1cnn2-c1ccc(F)cc1)c1ccc(S(C)(=O)=O)c(OC)c1 [1-(4-Fluorophenyl)-1H-pyrazolo[3,4-c]pyridine-4-carboxylic acid [(S)-1-(4-methanesulfonyl-3-methoxy-phenyl)-propyl]-amide]
0.3 nM | CC[C@H](NC(=O)c1cncc2c1cnn2-c1ccc(F)cc1)c1ccnc(C#N)c1 [1-(4-Fluorophenyl)-1H-pyrazolo[3,4-c]pyridine-4-carboxylic acid [(S)-1-(2-cyano-pyridin-4-yl)-propyl]-amide]
0.1 nM | CC[C@H](NC(=O)c1cncc2c1cnn2-c1ccc(F)cc1)c1cc(S(C)(=O)=O)cs1 [1-(4-Fluorophenyl)-1H-pyrazolo[3,4-c]pyridine-4-carboxylic acid [(S)-1-(4-methanesulfonyl-thiophen-2-yl)-propyl]-amide]
0.3 nM | CC[C@H](NC(=O)c1cncc2c1cnn2-c1ccc(F)cc1)c1cc(Cl)nc(S(C)(=O)=O)c1 [1-(4-Fluorophenyl)-1H-pyrazolo[3,4-c]pyridine-4-carboxylic acid [(S)-1-(2-chloro-6-methanesulfonyl-pyridin-4-yl)-propyl]-amide]
0.5 nM | CC[C@H](NC(=O)c1cncc2c1cnn2-c1ccc(F)cc1)c1ccnc(C(C)(C)O)c1 [1-(4-Fluorophenyl)-1H-pyrazolo[3,4-c]pyridine-4-carboxylic acid {(S)-1-[2-(1-hydroxy-1-methyl-ethyl)-pyridin-4-yl]-propyl}-amide]
6 nM | CC[C@H](NC(=O)c1cncc2c1cnn2-c1ccc(F)cc1)c1cc(S(C)(=O)=O)co1 [1-(4-Fluorophenyl)-1H-pyrazolo[3,4-c]pyridine-4-carboxylic acid [(S)-1-(4-methanesulfonyl-furan-2-yl)-propyl]-amide]
0.7 nM | CC[C@H](NC(=O)c1cncc2c1cnn2-c1ccc(F)cc1)c1ccnc(N2CCOCC2)c1 [1-(4-Fluorophenyl)-1H-pyrazolo[3,4-c]pyridine-4-carboxylic acid [(S)-1-(2-morpholin-4-yl-pyridin-4-yl)-propyl]-amide]
1 nM | CC[C@H](NC(=O)c1cncc2c1cnn2-c1ccc(F)cc1)c1cnc(SC)o1 [1-(4-Fluorophenyl)-1H-pyrazolo[3,4-c]pyridine-4-carboxylic acid [(S)-1-(2-methylsulfanyl-oxazol-5-yl)-propyl]-amide]
0.2 nM | CC[C@H](NC(=O)c1cncc2c1cnn2-c1ccc(F)cc1)c1cccc(Br)n1 [1-(4-Fluorophenyl)-1H-pyrazolo[3,4-c]pyridine-4-carboxylic acid [(S)-1-(6-bromopyridin-2-yl)-propyl]-amide]
0.5 nM | CC[C@H](NC(=O)c1cncc2c1cnn2-c1ccc(F)cc1)c1ccnc([S@+](C)[O-])c1 [1-(4-Fluorophenyl)-1H-pyrazolo[3,4-c]pyridine-4-carboxylic acid {(S)-1-[2-((S)-methanesulfinyl)-pyridin-4-yl]-propyl}-amide]
0.3 nM | CC[C@H](NC(=O)c1cncc2c1cnn2-c1ccc(F)cc1)c1ccc(S(=O)(=O)CC)nc1 [1-(4-Fluorophenyl)-1H-pyrazolo[3,4-c]pyridine-4-carboxylic acid [(S)-1-(6-ethanesulfonyl-pyridin-3-yl)-propyl]-amide]
0.2 nM | CC[C@@H](NC(=O)c1cncc2c1cnn2-c1ccc(F)cc1)c1ccc(OC)c(S(C)(=O)=O)c1 [1-(4-Fluorophenyl)-1H-pyrazolo[3,4-c]pyridine-4-carboxylic acid [(R)-1-(3-methanesulfonyl-4-methoxy-phenyl)-propyl]-amide]
0.6 nM | CC[C@H](NC(=O)c1cncc2c1cnn2-c1ccc(F)cc1)c1ccc(Br)s1 [1-(4-Fluorophenyl)-1H-pyrazolo[3,4-c]pyridine-4-carboxylic acid [(S)-1-(5-bromo-thiophen-2-yl)-propyl]-amide]
0.2 nM | CC[C@H](NC(=O)c1cncc2c1cnn2-c1ccc(F)cc1)c1ccnc(Cl)c1 [1-(4-Fluorophenyl)-1H-pyrazolo[3,4-c]pyridine-4-carboxylic acid [(S)-1-(2-chloropyridin-4-yl)-propyl]-amide]
